From ChEMBL document CHEMBL1201862, “PubChem BioAssay data set” (2004) come the findings set out here.

Each structure is given as a SMILES string. Calls of active or inactive are those of the source.

Experiment [1] concerns the target Nonstructural protein 1 (Influenza A virus, UniProt Q194T2). It is filed as functional, Influenza A virus (A/California/07/2009(H1N1)).
Experiment [2] has as its target T1, Short transient receptor potential channel 4 (Mus musculus, UniProt Q9QUQ5).
T1 sequence (Q9QUQ5 whole entry): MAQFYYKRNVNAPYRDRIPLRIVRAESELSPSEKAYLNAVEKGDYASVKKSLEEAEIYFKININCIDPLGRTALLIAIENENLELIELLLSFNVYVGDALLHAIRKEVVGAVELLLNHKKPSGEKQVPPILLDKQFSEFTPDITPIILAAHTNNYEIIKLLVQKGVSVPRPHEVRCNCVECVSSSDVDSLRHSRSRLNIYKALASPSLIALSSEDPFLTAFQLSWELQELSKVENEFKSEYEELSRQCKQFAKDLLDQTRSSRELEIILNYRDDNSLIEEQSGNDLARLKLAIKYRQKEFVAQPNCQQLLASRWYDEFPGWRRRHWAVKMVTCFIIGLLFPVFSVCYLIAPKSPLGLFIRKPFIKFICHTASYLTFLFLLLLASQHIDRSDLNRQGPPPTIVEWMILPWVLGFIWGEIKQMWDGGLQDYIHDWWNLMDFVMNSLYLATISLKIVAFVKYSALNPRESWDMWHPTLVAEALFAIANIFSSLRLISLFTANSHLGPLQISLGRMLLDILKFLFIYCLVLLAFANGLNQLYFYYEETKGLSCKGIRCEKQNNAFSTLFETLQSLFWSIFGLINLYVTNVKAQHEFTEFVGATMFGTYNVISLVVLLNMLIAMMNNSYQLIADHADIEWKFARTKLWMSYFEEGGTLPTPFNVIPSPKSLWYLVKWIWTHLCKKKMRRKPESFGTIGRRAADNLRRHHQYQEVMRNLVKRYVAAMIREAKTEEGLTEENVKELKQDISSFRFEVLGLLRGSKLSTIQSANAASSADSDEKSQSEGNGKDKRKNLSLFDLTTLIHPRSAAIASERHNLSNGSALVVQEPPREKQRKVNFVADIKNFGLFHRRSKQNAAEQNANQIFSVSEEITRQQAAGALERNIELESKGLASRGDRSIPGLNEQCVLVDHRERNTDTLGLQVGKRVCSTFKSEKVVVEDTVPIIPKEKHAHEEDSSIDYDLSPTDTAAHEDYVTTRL
The experiment in a line: mouse TRPC4 channel activators, dose response, cell-based, HEK293 TRPC4/mu-opioid, Fluo-4 calcium (AID 434937). It is filed as functional.

A short description of experiment [3]: NIH-3T3 fibroblast cytotoxicity, dose response, cytotoxicity control, cell-based, fluorescence, Alamar Blue, secondary assay (AID 2327).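 Note: NIH-3T3 mouse fibroblasts cultured with fluconazole at 8 µg/mL.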 The experiment is classed as functional. For orientation: The colour change of resazurin is a common sign of viable cells or microbes.
Experiment [4] can be described thus: C. albicans growth with fluconazole, confirmation, fluorescence, retest (AID 2467). It is filed as functional, cell-based.
In experiment [5] the test system is HEK293. The experiment in a line: cells. The settings on record: Homo sapiens.
The subject of experiment [6] is HEK293. The experiment in a line: cells. Conditions: Homo sapiens. This is another data set of the same source.
Experiment [7] in a line: cells. The experiment is classed as functional, cell-based.
A short description of experiment [8]: cells. The experiment is classed as functional, cell-based. This is another data set of the same source.
Experiment [9] concerns the target T2, Aminopeptidase N (Plasmodium falciparum FcB1/Columbia, UniProt O96935).
T2 sequence (O96935 whole entry): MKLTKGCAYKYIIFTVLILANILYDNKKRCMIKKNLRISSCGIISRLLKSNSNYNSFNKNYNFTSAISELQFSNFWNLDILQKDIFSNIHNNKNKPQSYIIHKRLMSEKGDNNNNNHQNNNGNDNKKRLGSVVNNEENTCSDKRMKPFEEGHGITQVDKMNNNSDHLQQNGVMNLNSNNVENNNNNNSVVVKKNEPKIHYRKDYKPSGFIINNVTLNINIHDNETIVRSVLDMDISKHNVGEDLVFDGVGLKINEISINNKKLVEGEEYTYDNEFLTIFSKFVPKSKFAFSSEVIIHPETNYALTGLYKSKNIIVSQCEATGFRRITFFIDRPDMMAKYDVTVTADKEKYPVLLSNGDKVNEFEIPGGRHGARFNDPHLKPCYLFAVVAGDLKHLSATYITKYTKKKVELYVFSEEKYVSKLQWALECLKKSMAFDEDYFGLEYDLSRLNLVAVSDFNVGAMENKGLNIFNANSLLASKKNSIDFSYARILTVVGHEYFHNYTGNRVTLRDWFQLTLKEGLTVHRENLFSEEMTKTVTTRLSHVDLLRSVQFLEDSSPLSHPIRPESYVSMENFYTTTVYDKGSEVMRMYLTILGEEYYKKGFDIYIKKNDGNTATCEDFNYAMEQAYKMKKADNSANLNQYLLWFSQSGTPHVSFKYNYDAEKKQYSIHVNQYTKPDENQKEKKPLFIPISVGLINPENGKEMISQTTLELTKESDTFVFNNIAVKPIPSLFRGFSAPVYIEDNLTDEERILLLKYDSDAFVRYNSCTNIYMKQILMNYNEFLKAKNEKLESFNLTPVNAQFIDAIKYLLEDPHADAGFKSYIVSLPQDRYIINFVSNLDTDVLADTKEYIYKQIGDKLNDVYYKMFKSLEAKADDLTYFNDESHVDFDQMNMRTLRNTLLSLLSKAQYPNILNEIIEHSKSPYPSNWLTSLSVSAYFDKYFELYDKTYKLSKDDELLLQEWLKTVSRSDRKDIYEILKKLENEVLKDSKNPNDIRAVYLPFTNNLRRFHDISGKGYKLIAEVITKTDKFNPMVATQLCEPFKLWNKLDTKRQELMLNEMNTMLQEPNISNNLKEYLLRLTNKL
The experiment in a line: P. falciparum M1AAP inhibitors, biochemical, fluorogenic H-Leu-NHMec substrate, 1536-well (AID 1445). Details: species or system Plasmodium falciparum 3D7, 3D7.

Experiment [10] addresses T3, Sentrin-specific protease 7 (Homo sapiens, UniProt Q9BQF6).
T3 sequence (Q9BQF6 whole entry): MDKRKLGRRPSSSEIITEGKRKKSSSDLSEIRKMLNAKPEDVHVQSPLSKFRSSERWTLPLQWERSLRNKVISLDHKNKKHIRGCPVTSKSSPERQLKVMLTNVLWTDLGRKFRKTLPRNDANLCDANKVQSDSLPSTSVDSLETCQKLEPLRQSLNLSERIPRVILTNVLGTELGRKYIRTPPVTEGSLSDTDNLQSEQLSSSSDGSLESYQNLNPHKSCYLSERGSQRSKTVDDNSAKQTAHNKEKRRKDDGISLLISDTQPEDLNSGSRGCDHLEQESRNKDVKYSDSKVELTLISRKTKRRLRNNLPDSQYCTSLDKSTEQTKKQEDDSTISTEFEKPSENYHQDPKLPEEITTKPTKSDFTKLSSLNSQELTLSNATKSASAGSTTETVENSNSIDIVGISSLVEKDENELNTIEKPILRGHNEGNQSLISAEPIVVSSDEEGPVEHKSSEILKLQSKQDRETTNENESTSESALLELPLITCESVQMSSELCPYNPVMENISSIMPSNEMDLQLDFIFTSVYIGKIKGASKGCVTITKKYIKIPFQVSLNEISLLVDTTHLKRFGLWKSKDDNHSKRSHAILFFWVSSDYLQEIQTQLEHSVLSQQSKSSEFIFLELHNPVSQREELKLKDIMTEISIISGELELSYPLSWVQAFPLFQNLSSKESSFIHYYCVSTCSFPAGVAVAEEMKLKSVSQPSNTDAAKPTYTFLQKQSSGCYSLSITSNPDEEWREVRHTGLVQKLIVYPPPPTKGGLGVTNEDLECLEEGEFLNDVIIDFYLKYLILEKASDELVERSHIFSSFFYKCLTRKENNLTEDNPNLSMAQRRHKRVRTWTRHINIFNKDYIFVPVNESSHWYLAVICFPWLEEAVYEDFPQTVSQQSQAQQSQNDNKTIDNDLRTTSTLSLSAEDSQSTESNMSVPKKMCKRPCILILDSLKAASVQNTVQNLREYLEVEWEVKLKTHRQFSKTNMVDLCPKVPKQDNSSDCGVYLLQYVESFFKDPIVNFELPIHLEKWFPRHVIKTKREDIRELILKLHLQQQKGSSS
The experiment is classed as functional.

Experiment [11] has as its target T4, Sentrin-specific protease 6 (Homo sapiens, UniProt Q9GZR1).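 Note: Luminescence-based dose-response confirmatory assay of SENP6 inhibition, following up an ultra-high-throughput screen.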
T4 sequence (Q9GZR1 whole entry): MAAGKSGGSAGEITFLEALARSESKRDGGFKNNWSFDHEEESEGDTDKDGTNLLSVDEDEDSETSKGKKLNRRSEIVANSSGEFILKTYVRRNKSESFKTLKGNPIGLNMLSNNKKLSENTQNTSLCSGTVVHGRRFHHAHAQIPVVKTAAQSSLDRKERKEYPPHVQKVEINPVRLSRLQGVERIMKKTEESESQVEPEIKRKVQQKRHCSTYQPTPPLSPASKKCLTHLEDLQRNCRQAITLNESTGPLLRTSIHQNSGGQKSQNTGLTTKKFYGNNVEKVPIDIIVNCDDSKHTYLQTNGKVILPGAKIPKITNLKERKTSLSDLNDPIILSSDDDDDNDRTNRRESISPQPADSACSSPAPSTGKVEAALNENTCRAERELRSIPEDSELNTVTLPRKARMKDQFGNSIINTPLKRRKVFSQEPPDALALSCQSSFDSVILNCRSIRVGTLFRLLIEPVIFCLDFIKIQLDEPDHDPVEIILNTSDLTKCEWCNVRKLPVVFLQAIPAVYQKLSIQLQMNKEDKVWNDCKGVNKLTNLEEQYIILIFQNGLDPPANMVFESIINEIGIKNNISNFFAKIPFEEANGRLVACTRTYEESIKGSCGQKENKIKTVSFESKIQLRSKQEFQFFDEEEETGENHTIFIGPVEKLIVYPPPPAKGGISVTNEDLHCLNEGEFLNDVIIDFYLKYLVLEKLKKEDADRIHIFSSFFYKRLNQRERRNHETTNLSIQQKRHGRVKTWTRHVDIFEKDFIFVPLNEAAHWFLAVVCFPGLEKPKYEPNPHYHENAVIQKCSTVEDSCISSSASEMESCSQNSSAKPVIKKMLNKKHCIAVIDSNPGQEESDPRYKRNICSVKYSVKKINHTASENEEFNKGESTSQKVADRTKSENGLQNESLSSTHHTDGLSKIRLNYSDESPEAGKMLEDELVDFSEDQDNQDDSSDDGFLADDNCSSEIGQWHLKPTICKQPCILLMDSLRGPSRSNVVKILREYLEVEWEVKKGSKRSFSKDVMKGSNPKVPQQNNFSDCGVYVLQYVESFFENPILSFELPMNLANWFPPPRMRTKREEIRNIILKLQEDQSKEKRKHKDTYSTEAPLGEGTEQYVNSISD
It is filed as functional.

For experiment [12], the target named is T5, Sentrin-specific protease 8 (Homo sapiens, UniProt Q96LD8).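 Note: luminescence read-out of SENP8 inhibition, dose-response confirmation following an ultra-high-throughput screen.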
T5 sequence (Q96LD8 whole entry): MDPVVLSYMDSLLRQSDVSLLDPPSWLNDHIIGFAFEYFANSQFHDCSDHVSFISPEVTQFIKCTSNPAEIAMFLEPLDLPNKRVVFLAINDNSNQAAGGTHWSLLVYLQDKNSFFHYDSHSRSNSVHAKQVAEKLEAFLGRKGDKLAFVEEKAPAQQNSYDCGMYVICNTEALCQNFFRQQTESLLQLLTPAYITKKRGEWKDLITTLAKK
It is filed as functional.

In experiment [13] the test system is INS1. The experiment in a line: beta cell apoptosis inhibitors, cytokine rescue, dose response, luminescence, retest (AID 449756).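 Note: cell death triggered by IL-1 beta plus TNF-alpha plus IFN-gamma mixture; protective hits raise ATP signal compared with cytokine alone wells.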 The experiment is classed as functional, cell-based. Conditions: Rattus norvegicus.
In experiment [14] the target is T6, Polyadenylate-binding protein 1 (Homo sapiens, UniProt P11940). The experiment is described as follows: PABP1 MLLE–PAM2 interaction inhibitors, dose response, miRNA deadenylation inhibitor project, biochemical, fluorescence polarization, Cy5-PAM2 peptide, secondary (AID 602260). The experiment is classed as functional. Conditions: read-out: IC50_Mean. Background: In fluorescence polarisation assays a small probe gives low polarisation when free and higher when bound to something large.
T6 sequence (P11940 whole entry): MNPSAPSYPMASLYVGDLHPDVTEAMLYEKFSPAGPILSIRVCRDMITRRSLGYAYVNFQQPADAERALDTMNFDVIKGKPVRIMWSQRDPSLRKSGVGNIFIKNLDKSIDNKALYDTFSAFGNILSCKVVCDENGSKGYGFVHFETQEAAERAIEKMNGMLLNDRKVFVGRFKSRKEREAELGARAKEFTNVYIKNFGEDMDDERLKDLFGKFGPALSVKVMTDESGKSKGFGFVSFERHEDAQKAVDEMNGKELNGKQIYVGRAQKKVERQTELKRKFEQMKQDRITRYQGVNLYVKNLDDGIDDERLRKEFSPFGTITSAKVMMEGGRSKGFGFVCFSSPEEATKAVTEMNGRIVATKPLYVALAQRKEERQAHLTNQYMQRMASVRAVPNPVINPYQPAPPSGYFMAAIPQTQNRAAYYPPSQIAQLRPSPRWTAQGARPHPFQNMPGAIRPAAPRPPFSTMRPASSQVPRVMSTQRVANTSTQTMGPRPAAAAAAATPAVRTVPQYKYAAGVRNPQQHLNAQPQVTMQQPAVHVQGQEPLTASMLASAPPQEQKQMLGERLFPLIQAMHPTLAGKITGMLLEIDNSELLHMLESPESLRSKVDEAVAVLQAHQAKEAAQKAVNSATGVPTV

Experiment [15] concerns the target T6, Polyadenylate-binding protein 1. The experiment is described as follows: PABP1 MLLE–PAM2 binding inhibitor potency, dose response, biochemical, fluorescence polarization, FITC-PAM2 peptide (AID 602259). It is filed as functional. Conditions: read-out: IC50_Mean.

Nonstructural protein 1, sequence (Q194T2 whole entry): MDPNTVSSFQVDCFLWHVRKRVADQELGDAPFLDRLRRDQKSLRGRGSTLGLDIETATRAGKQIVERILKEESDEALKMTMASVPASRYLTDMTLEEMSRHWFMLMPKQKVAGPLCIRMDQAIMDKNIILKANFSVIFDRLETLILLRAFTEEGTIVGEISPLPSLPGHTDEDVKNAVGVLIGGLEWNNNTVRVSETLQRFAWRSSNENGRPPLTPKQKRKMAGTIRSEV

Take `CC1(C)OC(c2ccccc2)=C/C(=C/C=C2C(=O)c3ccccc3C2=O)O1`: the IC50 in experiment [1] is 6.6 µM (active).
For `COc1cccc(CN2CCNC(=O)C2CC(=O)N(C)CCc2ccccn2)c1` (stereo not given), the EC50 (as a rule, the concentration that produces a half-maximal response) in experiment [2] was 4.73 µM (active).
Regarding `Fc1cccc(-n2cc(-c3ccccc3)c3c(S)ncnc32)c1`, the EC50 in experiment [3] is > 150 µM (inactive); in experiment [4], 8.62 µM (active); in [5], > 59.6 µM (inactive); in [6] it was > 59.6 µM (inactive).
Regarding `COc1ccc(CCN(C)c2ccc(S(=O)(=O)N3CCCC3)cc2[N+](=O)[O-])cc1OC`, the EC50 in experiment [5] and in experiment [6] was > 59.7 µM (inactive) each time.
For `COC(=O)C1=C(C)N(C)C(=O)NC1c1cc(Cl)c(O)c(OC)c1` (stereo not given), the EC50 in experiment [7] is > 350 µM (not active); in experiment [8], > 350 µM (not active); in experiment [5], > 59.6 µM (inactive); in experiment [6], > 59.6 µM (inactive).
`OCCNCCSc1ccc(Cl)cc1`: the EC50 in experiment [2] was 1.5 µM (active).
Turning to `CCCCN(CC)C(=O)CSc1nc2c(sc(=S)n2-c2ccc(OCC)cc2)c(=O)[nH]1`, the IC50 in experiment [9] was 38.8 µM (active).
On to `Cc1ccc(S(=O)(=O)N(C)C)cc1NC(=O)Nc1c(-c2ccccc2)noc1C`, for which, in experiment [9], the IC50 was 12.9 µM (active).
Take `COc1ccc(C(N)=NOC(=O)CSc2ccccc2)cc1`: the IC50 in experiment [10] was 5.98 µM (active); in experiment [11] it was 28 µM (active); in [12], 12.8 µM (active).
Take `CN(C)C(CNC(=O)CSc1nc2sc3c(c2c(=O)n1C)CCCC3)c1ccccc1` (stereo not given): the EC50 in [5] and in experiment [6] was > 59.6 µM (inactive) throughout.
In the case of `COc1ccc(O)c(/C=N/NC(=S)Nc2cccnc2)c1`, the IC50 is 3.04 µM (active) in experiment [1], > 66 µM (inactive) in experiment [14] and > 66 µM (inactive) in experiment [15]. Besides, the concentration at half-maximal activity (AC50) (usually the concentration at which the activity in the assay is half-maximal) in experiment [13] was 1.56 µM (active).
Regarding `O=C(O)C(Cc1ccccc1)/N=C/c1c(O)oc2ccccc2c1=O` (stereo not given), the IC50 in [9] is 20.6 µM (active).
